Test results from patent US20200369629A1, “BENZAMIDE COMPOUNDS AND THEIR USE AS HERBICIDES” (BASF SE, priority 2017, published 2020).

Experiments:
Assay type in all cases: in vivo
Details in all cases: application rate 62.5 g/ha, scale 0 to 100 (100 = complete destruction, 0 = no damage)
[1] = system: ALOMY (Alopecurus myosuroiedes); assay: Greenhouse post-emergence test, test series 1, ALOMY
From the text: (§1) The seeds of the test plants were sown separately for each species. For the pre-emergence treatment, the active ingredients, which had been suspended or emulsified in water, were applied directly after sowing by means of finely distributing nozzles. The containers were irrigated gently to promote germination and growth and subsequently covered with transparent plastic hoods until the plants had rooted. This cover caused uniform germination of the test plants, unless this had been impaired by the active ingredients. For the post-emergence treatment, the test plants were first grown to a height of 3 to 15 cm, depending on the plant habit, and only then treated with the active ingredients which had been suspended or emulsified in water. For this purpose, the test plants were either sown directly and grown in the same containers, or they were first grown separately as seedlings and transplanted into the test containers a few days prior to treatment. Depending on the species, the plants were kept at 10-25° C. or 20-25° C., respectively. The test period extended over 2 to 4 weeks. During this time, the plants were tended, and their response to the individual treatments was evaluated. Evaluation was carried out using a scale from 0 to 100. 100 means no emergence of the plants, or complete destruction of at least the aerial moieties, and 0 means no damage, or normal course of growth. A good herbicidal activity is given at values of at least 70 and a very good herbicidal activity is given at values of at least 85. Test Series 1: At an application rate of 62.5 g/ha the following compounds were tested in post-emergence tests against: ALOMY (Alopecurus myosuroiedes)

[2] = system: AVEFA (Avena fatua); assay: Greenhouse post-emergence test, test series 1, AVEFA
From the text: as §1, with “AVEFA (Avena fatua)” for “ALOMY (Alopecurus myosuroiedes)”

[3] = system: AMARE (Amaranthus retroflexus); assay: Greenhouse post-emergence test, test series 1, AMARE
From the text: as §1, with “AMARE (Amaranthus retroflexus)” for “ALOMY (Alopecurus myosuroiedes)”

[4] = system: CHEAL (Chenopodium album); assay: Greenhouse post-emergence test, test series 1, CHEAL
From the text: as §1, with “CHEAL (Chenopodium album)” for “ALOMY (Alopecurus myosuroiedes)”

Measured: pest or weed control at 62.5 g/ha

Cc1c(NC(=O)N(C)CC(F)(F)F)c(Br)cc(F)c1C(=O)Nc1nnnn1C [Example 1, 4-bromo-6-fluoro-2-methyl-N-(1-methyltetrazol-5-yl)-3-[[methyl(2,2,2-trifluoroethyl)carbamoyl]amino]benzamide]
> 85%: all assays above

CCN(CC(F)(F)F)C(=O)Nc1c(Br)cc(F)c(C(=O)Nc2nnnn2C)c1C [Example 2, 4-bromo-6-fluoro-2-methyl-N-(1-methyltetrazol-5-yl)-3-[[ethyl(2,2,2-trifluoroethyl)carbamoyl]amino]benzamide]
> 85%: all assays above

Cc1c(NC(=O)N(CC(F)(F)F)CC(F)(F)F)c(Br)cc(F)c1C(=O)Nc1nnnn1C [Example 3]
> 85%: all assays above

Cc1c(NC(=O)N(CC(F)(F)F)C2CC2)c(Br)cc(F)c1C(=O)Nc1nnnn1C [Example 6]
> 85%: all assays above

Cn1nnnc1NC(=O)c1c(F)cc(Cl)c(NC(=O)N(CC(F)(F)F)C2CC2)c1Cl [Example 7]
> 85%: all assays above

CCN(CC(F)(F)F)C(=O)Nc1c(Cl)cc(F)c(C(=O)Nc2nnnn2C)c1Cl [Example 8]
> 85%: [2] | [3] | [4]

CN(CC(F)(F)F)C(=O)Nc1c(Cl)cc(F)c(C(=O)Nc2nnnn2C)c1Cl [Example 9, 2,4-dichloro-6-fluoro-N-(1-methyltetrazol-5-yl)-3-[[methyl(2,2,2-trifluoroethyl)carbamoyl]amino]benzamide]
> 85%: all assays above

CN(CC(F)(F)F)C(=O)Nc1c(C(F)(F)F)cc(F)c(C(=O)Nc2nnnn2C)c1Cl [Example 10]
> 85%: all assays above

Cc1c(NC(=O)N(C)CC(F)(F)F)c(Cl)cc(F)c1C(=O)Nc1nnnn1C [Example 12]
> 85%: all assays above

Cc1c(NC(=O)N(CC(F)(F)F)C(C)C)c(Cl)cc(F)c1C(=O)Nc1nnnn1C [Example 13]
> 85%: [2] | [3] | [4]

CC(C)N(CC(F)(F)F)C(=O)Nc1c(C(F)(F)F)cc(F)c(C(=O)Nc2nnnn2C)c1Cl [Example 14]
> 85%: all assays above

CCN(CC(F)(F)F)C(=O)Nc1c(Cl)cc(F)c(C(=O)Nc2nnnn2C)c1C [Example 18]
> 85%: all assays above

Cc1c(NC(=O)N(CC(F)(F)F)CC(F)(F)F)c(Cl)cc(F)c1C(=O)Nc1nnnn1C [Example 19]
> 85%: all assays above

CC(C)N(CC(F)(F)F)C(=O)Nc1c(Cl)cc(F)c(C(=O)Nc2nnnn2C)c1Cl [Example 20]
> 85%: all assays above

Cc1c(NC(=O)N(CC(F)(F)F)C2CC2)c(Cl)cc(F)c1C(=O)Nc1nnnn1C [Example 21]
> 85%: all assays above

Cn1nnnc1NC(=O)c1c(F)cc(C(F)(F)F)c(NC(=O)N(CC(F)(F)F)CC(F)(F)F)c1Cl [Example 22]
> 85%: all assays above
